Data on 30 compounds can be found in US11066396B2 (priority 2016, dated 2021).

In one test the target is HDAC1 (Homo sapiens (Human), UniProt Q13547). Conditions: read-out: HDAC1 IC50.
For the next test, the target named is HDAC5 (Homo sapiens (Human), UniProt Q9UQL6). Conditions: read-out: HDAC5 IC50.
Another test has as its target HDAC8 (Homo sapiens (Human), UniProt Q9BY41). Conditions: read-out: HDAC8 IC50.

HDAC1, sequence (Q13547 whole entry): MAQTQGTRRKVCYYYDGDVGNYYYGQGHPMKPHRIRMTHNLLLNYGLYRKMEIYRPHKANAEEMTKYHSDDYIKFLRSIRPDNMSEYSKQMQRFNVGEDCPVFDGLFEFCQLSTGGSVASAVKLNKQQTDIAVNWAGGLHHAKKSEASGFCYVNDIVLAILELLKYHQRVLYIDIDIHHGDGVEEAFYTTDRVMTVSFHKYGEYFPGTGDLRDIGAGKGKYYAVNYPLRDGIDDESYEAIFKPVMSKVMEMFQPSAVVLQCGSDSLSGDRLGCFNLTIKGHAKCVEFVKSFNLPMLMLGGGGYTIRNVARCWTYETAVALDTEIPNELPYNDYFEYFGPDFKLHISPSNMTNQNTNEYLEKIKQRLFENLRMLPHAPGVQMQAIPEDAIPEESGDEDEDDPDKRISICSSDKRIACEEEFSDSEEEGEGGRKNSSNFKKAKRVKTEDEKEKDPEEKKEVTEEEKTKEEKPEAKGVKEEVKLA
HDAC5, sequence (Q9UQL6 656-1122): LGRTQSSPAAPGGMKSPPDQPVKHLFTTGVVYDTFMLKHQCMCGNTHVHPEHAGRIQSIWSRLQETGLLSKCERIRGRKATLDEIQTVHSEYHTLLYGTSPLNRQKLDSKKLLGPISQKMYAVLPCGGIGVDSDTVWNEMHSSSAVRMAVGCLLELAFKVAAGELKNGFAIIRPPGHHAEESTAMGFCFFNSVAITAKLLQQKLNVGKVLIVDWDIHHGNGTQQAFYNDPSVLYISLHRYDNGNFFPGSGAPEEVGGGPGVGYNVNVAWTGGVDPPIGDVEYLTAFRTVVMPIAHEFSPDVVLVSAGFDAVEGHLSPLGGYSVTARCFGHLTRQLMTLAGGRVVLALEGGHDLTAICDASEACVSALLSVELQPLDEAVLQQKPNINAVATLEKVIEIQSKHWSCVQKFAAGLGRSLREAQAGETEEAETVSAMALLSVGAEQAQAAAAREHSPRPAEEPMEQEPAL
HDAC8, sequence (Q9BY41 whole entry): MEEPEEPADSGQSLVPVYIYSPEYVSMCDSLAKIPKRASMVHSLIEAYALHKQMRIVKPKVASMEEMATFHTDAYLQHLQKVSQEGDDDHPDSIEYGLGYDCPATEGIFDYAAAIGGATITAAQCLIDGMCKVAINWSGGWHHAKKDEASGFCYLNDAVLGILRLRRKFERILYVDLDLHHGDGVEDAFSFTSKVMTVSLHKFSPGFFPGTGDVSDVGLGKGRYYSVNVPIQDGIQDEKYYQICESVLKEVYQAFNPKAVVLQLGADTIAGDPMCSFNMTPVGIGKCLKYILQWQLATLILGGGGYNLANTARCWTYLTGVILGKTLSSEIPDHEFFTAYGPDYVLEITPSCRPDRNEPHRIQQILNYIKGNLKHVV
Description for HDAC1: Assay protocol: In brief, compounds were titrated in 100% DMSO via accoustic dispensing directly to the assay plate using the ECHO 550 [Labcyte]. HDAC enzymes at the concentrations indicated above were added in assay buffer to the assay plates containing the compounds using a Combi [Thermo Scientific]. The wells were mixed, and the plates were allowed to pre-incubate at ambient temperature for 3 h. After the 3 h, the appropriate substrate, at the concentrations indicated above, was added to the wells using a Combi. The wells were mixed, and the plates were allowed to incubate at ambient temperature for 1 h. After the 1 h, the appropriate Developer/stop solution was added to the wells using a Combi. The wells were mixed, and the plates were allowed to incubate at ambient temperature for 1 h. […] Data were analyzed using 4P curve fitting with Activity Base [IDBS] software.

For `O=C1CCCC(c2ccccc2)N1c1ccc(-c2noc(C(F)(F)F)n2)cc1` (stereo not drawn) [Example 40, 6-phenyl-1-(4-(5-(trifluoromethyl)-1,2,4-oxadiazol-3-yl)phenyl)piperidin-2-one], the IC50 on HDAC1 stood at 410 nM; on HDAC5, 34 nM; at HDAC8, 800 nM.

Regarding `O=C(NC1CCOCC1)OCc1ccc(-c2noc(C(F)(F)F)n2)cn1` [Example 195, {5-[5-(trifluoromethyl)-1,2,4-oxadiazol-3-yl]pyridin-2-yl}methyl oxan-4-ylcarbamate], the IC50 on HDAC1 turned out to be 780 nM; at HDAC5, 660 nM; on HDAC8 it was 1600 nM.

Regarding `CS(=O)(=O)NC(Cc1ccc(-c2noc(C(F)(F)F)n2)cn1)c1cccc(C(F)(F)F)c1` (stereo not drawn) [Example 178, N-(2-(5-(5-(Trifluoromethyl)-1,2,4-oxadiazol-3-yl)pyridin-2-yl)-1-(3-(trifluoromethyl)phenyl)ethyl)methanesulfonamide], the IC50 was 410 nM at HDAC1, 320 nM on HDAC5 and 3700 nM on HDAC8.

Turning to `Cc1noc([C@@H]2CCC(=O)N2c2ccc(-c3noc(C(F)(F)F)n3)c(F)c2F)n1` [Example 12, (S)-1-(2,3-Difluoro-4-(5-(trifluoromethyl)-1,2,4-oxadiazol-3-yl)phenyl)-5-(3-methyl-1,2,4-oxadiazol-5-yl)pyrrolidin-2-one], the IC50 on HDAC1 is 2000 nM; at HDAC5, 11 nM; at HDAC8 it was 6000 nM.

Regarding `COc1ccc(OCc2ccc(-c3noc(C(F)(F)F)n3)c(F)c2)nc1` [Example 243, 2-({3-fluoro-4-[5-(trifluoromethyl)-1,2,4-oxadiazol-3-yl]phenyl}methoxy)-5-methoxypyridine], the IC50 is 1500 nM at HDAC1, 50 nM at HDAC5 and 1600 nM on HDAC8.

Take `Fc1cc(COc2ccc3cnccc3n2)ccc1-c1noc(C(F)(F)F)n1` [Example 234, 2-({3-fluoro-4-[5-(trifluoromethyl)-1,2,4-oxadiazol-3-yl]phenyl}methoxy)-1,6-naphthyridine]: the IC50 at HDAC1 was determined as 370 nM; on HDAC5 it was 8.4 nM; at HDAC8 it was 640 nM.

In the case of `Fc1cc(COc2cncc(Cl)c2)ccc1-c1noc(C(F)(F)F)n1` [Example 287, 3-chloro-5-({3-fluoro-4-[5-(trifluoromethyl)-1,2,4-oxadiazol-3-yl]phenyl}methoxy)pyridine], the IC50 was 1800 nM at HDAC1 and 150 nM on HDAC5.

For the compound `Cc1ccnnc1OCc1ccc(-c2noc(C(F)(F)F)n2)c(F)c1` [Example 266, 3-({3-fluoro-4-[5-(trifluoromethyl)-1,2,4-oxadiazol-3-yl]phenyl}methoxy)-4-methylpyridazine], the IC50 on HDAC1 is 6600 nM; at HDAC5 it was 250 nM.

For `Cn1cc(COc2nccc(-c3noc(C(F)(F)F)n3)c2Cl)nn1` [Example 293, 3-chloro-2-[(1-methyl-1H-1,2,3-triazol-4-yl)methoxy]-4-[5-(trifluoromethyl)-1,2,4-oxadiazol-3-yl]pyridine], the IC50 on HDAC1 is 4500 nM; at HDAC5 it was 510 nM.

On to `Fc1cc(COc2nnc(C3CC3)o2)ccc1-c1noc(C(F)(F)F)n1` [Example 280, 3-(4-{[(5-cyclopropyl-1,3,4-oxadiazol-2-yl)oxy]methyl}-2-fluorophenyl)-5-(trifluoromethyl)-1,2,4-oxadiazole], for which the IC50 at HDAC1 was determined as 2200 nM; on HDAC5 it was 190 nM.

Regarding `Fc1cc(COc2cnc3[nH]ccc3c2)ccc1-c1noc(C(F)(F)F)n1` [Example 259, 5-({3-fluoro-4-[5-(trifluoromethyl)-1,2,4-oxadiazol-3-yl]phenyl}methoxy)-1H-pyrrolo[2,3-b]pyridine], the values for the IC50 on HDAC1 and on HDAC5 were 4200 nM and 84 nM, respectively.

As for `Cc1cnc(COc2nccc(-c3noc(C(F)(F)F)n3)c2Cl)cn1` [Example 290, 2-[({3-chloro-4-[5-(trifluoromethyl)-1,2,4-oxadiazol-3-yl]pyridin-2-yl}oxy)methyl]-5-methylpyrazine], the IC50 at HDAC1 worked out at 8100 nM; on HDAC5, 660 nM.

Consider `Cn1ccc(COc2nccc(-c3noc(C(F)(F)F)n3)c2Cl)n1` [Example 289, 3-chloro-2-[(1-methyl-1H-pyrazol-3-yl)methoxy]-4-[5-(trifluoromethyl)-1,2,4-oxadiazol-3-yl]pyridine], for which the IC50 at HDAC1 amounted to 8400 nM; on HDAC5, 680 nM.

Regarding `O=C(NC(Cc1ccc(-c2noc(C(F)(F)F)n2)cn1)c1cccc(C(F)(F)F)c1)c1ccccn1` (racemic) [Example 488, N-(2-{5-[5-(trifluoromethyl)-1,2,4-oxadiazol-3-yl]pyridin-2-yl}-1-[3-(trifluoromethyl)phenyl]ethyl)pyridine-2-carboxamide], the IC50 was determined as 880 nM on HDAC1 and 670 nM on HDAC5.

Consider `FC(F)(F)c1nc(-c2ccc(COc3nccc4nccn34)nc2)no1` [Example 303, 5-({5-[5-(trifluoromethyl)-1,2,4-oxadiazol-3-yl]pyridin-2-yl}methoxy)imidazo[1,2-c]pyrimidine], for which the values for the IC50 at HDAC1 and at HDAC5 were 990 nM and 170 nM, respectively.

As for `COc1ccc2cc(OCc3ccc(-c4noc(C(F)(F)F)n4)c(F)c3)nnc2c1` [Example 275, 3-({3-fluoro-4-[5-(trifluoromethyl)-1,2,4-oxadiazol-3-yl]phenyl}methoxy)-7-methoxycinnoline], the IC50 at HDAC1 came to 860 nM; at HDAC5, 87 nM.

Consider `CNC(=O)c1ccccc1OCc1ccc(-c2noc(C(F)(F)F)n2)c(F)c1` [Example 284, 2-({3-fluoro-4-[5-(trifluoromethyl)-1,2,4-oxadiazol-3-yl]phenyl}methoxy)-N-methylbenzamide], for which the IC50 on HDAC1 came to 2200 nM; at HDAC5, 260 nM.

As for `Fc1cc(COc2ccc(Cl)nc2)ccc1-c1noc(C(F)(F)F)n1` [Example 288, 2-chloro-5-({3-fluoro-4-[5-(trifluoromethyl)-1,2,4-oxadiazol-3-yl]phenyl}methoxy)pyridine], the IC50 at HDAC1 stood at 45000 nM; on HDAC5, 280 nM.

Take `COc1cncc(OCc2ccc(-c3noc(C(F)(F)F)n3)c(F)c2)c1` [Example 258, 3-({3-fluoro-4-[5-(trifluoromethyl)-1,2,4-oxadiazol-3-yl]phenyl}methoxy)-5-methoxypyridine]: the results for the IC50 on HDAC1 and at HDAC5 were 1200 nM and 150 nM, respectively.

On to `O=c1ccc2cnccc2n1Cc1ccc(-c2noc(C(F)(F)F)n2)cn1` [Example 301, 1-({5-[5-(trifluoromethyl)-1,2,4-oxadiazol-3-yl]pyridin-2-yl}methyl)-1,6-naphthyridin-2(1H)-one], for which the IC50 was 280 nM at HDAC1 and 37 nM on HDAC5.

Regarding `FC(F)(F)c1nc(-c2ccc(COc3cccc4[nH]nnc34)nc2)no1` [Example 297, 4-({5-[5-(trifluoromethyl)-1,2,4-oxadiazol-3-yl]pyridin-2-yl}methoxy)-1H-benzotriazole], the IC50 was determined as 310 nM at HDAC1 and 51 nM at HDAC5.

In the case of `CC1(C)COCCN1C(=O)[C@@H]1CCC(=O)N1c1ccc(-c2noc(C(F)(F)F)n2)c(F)c1` [Example 344, (5S)-5-[(3,3-dimethylmorpholin-4-yl)carbonyl]-1-{3-fluoro-4-[5-(trifluoromethyl)-1,2,4-oxadiazol-3-yl]phenyl}pyrrolidin-2-one], the IC50 at HDAC1 was 45000 nM; at HDAC5, 1900 nM.

On to `FC(F)(F)c1nc(-c2ccc(COc3nc(C4CC4)no3)nc2)no1` [Example 296, 2-{[(3-cyclopropyl-1,2,4-oxadiazol-5-yl)oxy]methyl}-5-[5-(trifluoromethyl)-1,2,4-oxadiazol-3-yl]pyridine], for which the IC50 on HDAC1 turned out to be 3700 nM; on HDAC5 it was 49 nM.

Take `Cc1csc(OCc2ccc(-c3noc(C(F)(F)F)n3)c(F)c2)n1` [Example 281, 3-(2-fluoro-4-{[(4-methyl-1,3-thiazol-2-yl)oxy]methyl}phenyl)-5-(trifluoromethyl)-1,2,4-oxadiazole]: the figures for the IC50 on HDAC1 and at HDAC5 were 2700 nM and 30 nM, respectively.

For the compound `Fc1cc(COc2nc3ncccc3n2CC(F)(F)F)ccc1-c1noc(C(F)(F)F)n1` [Example 277, 2-({3-fluoro-4-[5-(trifluoromethyl)-1,2,4-oxadiazol-3-yl]phenyl}methoxy)-1-(2,2,2-trifluoroethyl)-1H-imidazo[4,5-b]pyridine], the IC50 worked out at 2000 nM at HDAC1 and 130 nM on HDAC5.

Take `NCc1ccccc1OCc1ccc(-c2noc(C(F)(F)F)n2)c(F)c1` [Example 270, 1-[2-({3-fluoro-4-[5-(trifluoromethyl)-1,2,4-oxadiazol-3-yl]phenyl}methoxy)phenyl]methanamine]: the IC50 at HDAC1 is 2300 nM; at HDAC5, 160 nM.

`Cn1c(OCc2ccc(-c3noc(C(F)(F)F)n3)cn2)nc2cccnc21` [Example 304, 3-methyl-2-({5-[5-(trifluoromethyl)-1,2,4-oxadiazol-3-yl]pyridin-2-yl}methoxy)-3H-imidazo[4,5-b]pyridine]: the results for the 50% inhibitory concentration (IC50) at HDAC1 and on HDAC5 were 250 nM and 79 nM, respectively.

With `O=C(NC(Cc1ccc(-c2noc(C(F)(F)F)n2)cn1)c1cccc(C(F)(F)F)c1)c1ccccc1` (racemic) [Example 486, N-(2-{5-[5-(trifluoromethyl)-1,2,4-oxadiazol-3-yl]pyridin-2-yl}-1-[3-(trifluoromethyl)phenyl]ethyl)benzamide], the results for the IC50 at HDAC1 and at HDAC5 were 690 nM and 670 nM, respectively.

For `Fc1cccnc1COc1nccc(-c2noc(C(F)(F)F)n2)c1Cl` [Example 291, 3-chloro-2-[(3-fluoropyridin-2-yl)methoxy]-4-[5-(trifluoromethyl)-1,2,4-oxadiazol-3-yl]pyridine], the IC50 on HDAC1 stood at 9300 nM; at HDAC5, 190 nM.

With `Fc1cc(COc2ccc3cccc(F)c3n2)ccc1-c1noc(C(F)(F)F)n1` [Example 282, 8-fluoro-2-({3-fluoro-4-[5-(trifluoromethyl)-1,2,4-oxadiazol-3-yl]phenyl}methoxy)quinoline], the IC50 on HDAC1 turned out to be 720 nM; at HDAC5, 7 nM.
